Molecular target: T1, rat mGluR5 (Rattus norvegicus, UniProt P31424)
T1 construct: expressed in transfected cells; host or cells: HEK (human embryonic kidney) cells
Test: Potentiation of glutamate response, calcium fluorescence (FDSS) in HEK cells transfected with rat mGluR5
Assay type: cell-based
Conditions: for EC50: HEK cells transfected with rat mGluR5, EC20 concentration of glutamate, read-out: mGluR5 Potentiator EC50; for mGluR5 Potentiator Max: maximum extent of potentiation, normalized to the maximal response to agonist, in % (unit assumed)
Protocol: Human embryonic kidney (HEK) cells transfected with rat mGluR5 were plated in clear bottom assay plates for assay in a Functional Drug Screening System (FDSS). The cells were loaded with a […] fluorescent dye (e.g., Fluo-4), and the plates were washed and placed in the FDSS instrument. After establishment of a fluorescence baseline for twelve seconds, the compounds of the present invention were added to the cells, and the response in cells was measured. Five minutes later, an mGluR5 agonist (e.g., glutamate, 3,5-dihydroxyphenylglycine, or quisqualate) was added to the cells, and the response of the cells was measured. Potentiation of the agonist response of mGluR5 by the compounds in the present invention was observed as an increase in response to non-maximal concentrations of agonist (here, glutamate) in the presence of compound compared to the response to agonist in the absence of compound.
The above described assay operated in two modes. In the first mode, a range of concentrations of the present compounds were added to cells, followed by a single fixed concentration of agonist. If a compound acted as a potentiator, an EC50 value for potentiation and a maximum extent of potentiation by the compound at this concentration of agonist was determined by non-linear curve fitting. In the second mode, several fixed concentrations of the present compounds were added to various wells on a plate, followed by a range of concentrations of agonist for each concentration of present compound; the EC50 values for the agonist at each concentration of compound were determined by non-linear curve fitting. A decrease in the EC50 value of the agonist with increasing concentrations of the present compounds (a leftward shift of the agonist concentration-response curve) is an indication of the degree of mGluR5 potentiation at a given concentration of the present compound. An increase in the EC50 value of the agonist with increasing concentrations of the present compounds (a rightward shift of the agonist concentration-response curve) is an indication of the degree of mGluR5 antagonism at a given concentration of the present compound. The second mode also indicates whether the present compounds also affect the maximum response to mGluR5 to agonists.
Human embryonic kidney (HEK) cells transfected with rat mGluR5 were plated in clear-bottomed, poly-D-lysine-coated assay plates in glutamate-glutamine-free medium growth and incubated overnight at 37° C. in 5% CO2. The following day, cells were loaded with 2 μM calcium indicator dye, fluo-4 AM, for 1 h at 37° C. Dye was removed and replaced with assay buffer containing 1× Hanks balanced salt solution (Invitrogen, Carlsbad, Calif.), 20 mM HEPES, and 2.5 mM probenecid, pH 7.4. Cell plates were then loaded into the Functional Drug Screening System 6000 (FDSS 6000, Hamamatsu, Japan). After establishment of a fluorescence baseline for twelve seconds, the compounds of the present invention were added to the cells, and the response in cells was measured. Five minutes later, an mGluR5 agonist (e.g., glutamate, 3,5-dihydroxyphenylglycine, or quisqualate) was added to the cells, and the response of the cells was measured during a 1 minute incubation with agonists. Typically, the effect of test compounds of the present invention was on an EC20 concentration of glutamate was measured. All test compounds were dissolved and diluted in 100% DMSO and then serially diluted into assay buffer for a 2.5× stock in 0.25% DMSO; stock compounds were then added to the assay for a final DMSO concentration of 0.1%. Calcium fluorescence measures were recorded as fold over basal fluorescence; raw data was then normalized to the maximal response to agonist. Potentiation of the agonist response of mGluR5 by the compounds in the present invention was observed as an increase in response to non-maximal concentrations of agonist (here, glutamate) in the presence of compound compared to the response to agonist in the absence of compound. […]

T1 sequence (P31424 21-1203): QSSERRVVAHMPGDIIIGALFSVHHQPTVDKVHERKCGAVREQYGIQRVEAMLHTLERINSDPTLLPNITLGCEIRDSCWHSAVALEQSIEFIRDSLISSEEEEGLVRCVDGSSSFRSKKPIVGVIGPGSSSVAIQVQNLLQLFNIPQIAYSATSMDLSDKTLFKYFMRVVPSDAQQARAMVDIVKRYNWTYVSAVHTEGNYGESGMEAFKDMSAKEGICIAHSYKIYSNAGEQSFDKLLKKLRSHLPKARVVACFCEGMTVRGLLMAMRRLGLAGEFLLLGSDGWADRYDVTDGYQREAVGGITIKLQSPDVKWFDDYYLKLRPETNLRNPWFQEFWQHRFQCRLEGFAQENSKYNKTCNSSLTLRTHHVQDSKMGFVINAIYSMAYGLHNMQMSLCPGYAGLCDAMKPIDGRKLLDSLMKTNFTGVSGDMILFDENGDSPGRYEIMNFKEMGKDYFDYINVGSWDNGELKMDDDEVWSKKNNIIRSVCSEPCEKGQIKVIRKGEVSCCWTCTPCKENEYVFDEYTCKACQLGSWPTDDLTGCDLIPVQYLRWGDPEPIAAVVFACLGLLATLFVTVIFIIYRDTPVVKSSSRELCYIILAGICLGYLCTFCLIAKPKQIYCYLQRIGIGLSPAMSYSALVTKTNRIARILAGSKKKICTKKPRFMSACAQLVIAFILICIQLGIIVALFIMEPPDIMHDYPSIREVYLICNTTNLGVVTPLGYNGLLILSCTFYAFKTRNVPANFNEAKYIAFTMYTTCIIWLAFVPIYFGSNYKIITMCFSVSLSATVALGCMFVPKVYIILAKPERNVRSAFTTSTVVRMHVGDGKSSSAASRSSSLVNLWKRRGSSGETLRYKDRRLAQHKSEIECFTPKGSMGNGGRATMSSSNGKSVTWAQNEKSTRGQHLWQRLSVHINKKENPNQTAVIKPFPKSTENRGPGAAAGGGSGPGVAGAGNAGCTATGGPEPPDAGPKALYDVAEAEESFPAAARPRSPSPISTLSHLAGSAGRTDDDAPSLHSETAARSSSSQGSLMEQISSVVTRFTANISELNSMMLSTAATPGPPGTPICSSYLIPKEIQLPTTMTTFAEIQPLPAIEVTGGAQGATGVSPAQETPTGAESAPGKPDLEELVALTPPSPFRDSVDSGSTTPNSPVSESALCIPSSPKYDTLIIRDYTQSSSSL

SMILES	EC50	mGluR5 Potentiator Max
O=C1NCCc2cc(C#Cc3ccc(F)cc3F)ccc21 [VU000115]	853 nM	58.7
O=C1c2ccc(C#Cc3ccccc3)cc2CCN1Cc1ccccc1 [VU000071]	546 nM	89.9
O=C(CN1CCc2cc(C#Cc3ccccc3)ccc2C1=O)N1CCC(O)CC1 [VU000128]		37.6
COc1cccc(C#Cc2ccc3c(c2)CCNC3=O)c1 [VU000110]	3390 nM	58.1
CN(C)CCNC(=O)CN1CCc2cc(C#Cc3ccccc3)ccc2C1=O [VU000126]	1.66 nM	35.4
CN(C)c1ccc(C#Cc2ccc3c(c2)CCNC3=O)cc1 [VU000118]		28.9
O=C1NCCc2cc(C#Cc3cc(F)cc(F)c3)ccc21 [VU000116]	3000 nM	35.6
O=C(CN1CCc2cc(C#Cc3ccccc3)ccc2C1=O)NC1CC1 [VU000125]	3080 nM	52.6
CN1CCN(C(=O)CN2CCc3cc(C#Cc4ccccc4)ccc3C2=O)CC1 [VU000131]	7200 nM	35.4
O=C1c2ccc(C#Cc3ccccc3)cc2CCN1CC1CC1 [VU000098]	17.5 nM	69.4
COc1ccc(C#Cc2ccc3c(c2)CCNC3=O)c(C)c1 [VU000119]		29.7
O=C(CN1CCc2cc(C#Cc3ccccc3)ccc2C1=O)OCc1ccccc1 [VU000072]	77.3 nM	88.4
Cc1cc(C#Cc2ccc3c(c2)CCNC3=O)ccc1F [VU000112]	3670 nM	49.7
O=C1NCCc2cc(C#Cc3ccccc3F)ccc21 [VU000108]	145 nM	80.4
O=C(CN1CCc2cc(C#Cc3ccccc3)ccc2C1=O)NCCN1CCCCC1 [VU000129]		30
O=C1c2ccc(C#Cc3ccccc3)cc2CCN1CC1CCC1 [VU000099]	26.7 nM	90.7
CCCCN1CCc2cc(C#Cc3ccccc3)ccc2C1=O [VU000070]	96 nM	96.7
COCCNC(=O)CN1CCc2cc(C#Cc3ccccc3)ccc2C1=O [VU000127]	3060 nM	52.3
O=C1NCCc2cc(C#Cc3cccc(Cl)c3)ccc21 [VU000114]	470 nM	67.9
O=C1NCCc2cc(C#Cc3ccccc3Cl)ccc21 [VU000111]	4890 nM	53.2
O=C1NCCc2cc(C#Cc3ccncc3)ccc21 [VU000117]	243 nM	58
O=C(CN1CCc2cc(C#Cc3ccccc3)ccc2C1=O)NCC1CC1 [VU000124]	953 nM	53.7

Other lines, results leading:

EC50	mGluR5 Potentiator Max	SMILES
4040 nM	76.3	O=C1c2ccc(C#Cc3ccccc3)cc2CCN1CCN1CCC1 [VU000100]
	28.6	O=C1NCCc2cc(C#Cc3ccc(Cl)cc3)ccc21 [VU000113]
4040 nM	45.7	O=C1c2ccc(C#Cc3ccccc3)cc2CCN1CCN1CCC(O)CC1 [VU000102]
3570 nM	84	O=C1c2ccc(C#Cc3ccccc3)cc2CCN1CCN1CCOCC1 [VU000101]
	33.5	O=C1NCCc2cc(C#Cc3cccc(C(F)(F)F)c3)ccc21 [VU000120]
2350 nM	55.4	O=C(CN1CCc2cc(C#Cc3ccccc3)ccc2C1=O)N1CCOCC1 [VU000130]
87.7 nM	85.4	CCOC(=O)C(CC)N1CCc2cc(C#Cc3ccccc3)ccc2C1=O (stereo not shown) [VU000073]
172 nM	75.7	Cc1cccc(C#Cc2ccc3c(c2)CCNC3=O)c1 [VU000106]
	28.2	COc1ccc(C#Cc2ccc3c(c2)CCNC3=O)cc1 [VU000109]
25.4 nM	53.4	CN1CCc2cc(C#Cc3ccccc3)ccc2C1=O [VU000068]
	34.8	O=C1NCCc2cc(C#Cc3ccccc3C(F)(F)F)ccc21 [VU000121]
16.2 nM	96.5	CCCN1CCc2cc(C#Cc3ccccc3)ccc2C1=O [VU000069]
259 nM	81	O=C1NCCc2cc(C#Cc3ccc(F)cc3)ccc21 [VU000107]
612 nM	53.4	Cc1ccccc1C#Cc1ccc2c(c1)CCNC2=O [VU000105]

Source: patent US8034806B2, “Bicyclic mGluR5 positive allosteric modulators and methods of making and using same” (Vanderbilt University, priority 2007, dated 2011)
